Results from patent publication US10945969B2, “Compositions containing thymohydroquinone and their method of preparation” (SAMI LABS LIMITED, priority 2017, dated 2021).

What was measured:
[1] = Accelerated stability study; format: physicochemical; conditions: for THQ content by GC (%) / Difference in THQ content (%) / Percentage difference in THQ / TQ content by GC (%) / Difference in TQ content / Percentage difference in TQ: accelerated stability
[2] = Long term stability study; format: physicochemical
[3] = compared with thymoquinone; cited from earlier work
[4] = compared with thymoquinone; cited from earlier work; remark: listed apart in the source
[5] = over the accelerated stability study

SMILES: Cc1cc(O)c(C(C)C)cc1O [THQ, thymohydroquinone]
- THQ content by GC (%) ([1]; 1st month): 0.037%
- Difference in THQ content (%) ([1]; 1st month vs initial): 0.004%
- Percentage difference in THQ ([1]; 1st month vs initial): +12.12%
- THQ content by GC (%) ([1]; 2nd month): 0.041%
- Difference in THQ content (%) ([1]; 2nd month vs initial): 0.008%
- Percentage difference in THQ ([1]; 2nd month vs initial): +24.24%
- THQ content by GC (%) ([1]; 3rd month): 0.092%
- Difference in THQ content (%) ([1]; 3rd month vs initial): 0.059%
- Percentage difference in THQ ([1]; 3rd month vs initial): +178.78%
- THQ content by GC (%) ([1]; 6th month): 0.120%
- Difference in THQ content (%) ([1]; 6th month vs initial): 0.087%
- Percentage difference in THQ ([1]; 6th month vs initial): +263.63%
- Difference in THQ content (%) ([1]; Initial (0 month)): 0%
- Percentage difference in THQ ([1]; Initial (0 month)): 0%
- THQ content by GC (%) ([1]; Initial (0 month)): 0.033%
- thymohydroquinone quantity, trend [1, 5]: gradual increase
- THQ content by GC (%) ([2]; 3rd month): 0.095%
- Difference in THQ content ([2]; 3rd month vs initial): 0.062%
- Percentage difference in THQ ([2]; 3rd month vs initial): +187.88%
- THQ content by GC (%) ([2]; 6th month): 0.138%
- Difference in THQ content ([2]; 6th month vs initial): 0.105%
- Percentage difference in THQ ([2]; 6th month vs initial): +318.18%
- Difference in THQ content ([2]; Initial (0 Month)): 0%
- Percentage difference in THQ ([2]; Initial (0 Month)): 0%
- THQ content by GC (%) ([2]; Initial (0 Month)): 0.033%
- antioxidant potential [3]: more potent
- anti-inflammatory potential [4]: more potent

SMILES: CC1=CC(=O)C(C(C)C)=CC1=O [TQ, thymoquinone]
- TQ content by GC (%) ([1]; 1st month): 0.717%
- Difference in TQ content ([1]; 1st month vs initial): 0.016%
- Percentage difference in TQ ([1]; 1st month vs initial): −2.18%
- TQ content by GC (%) ([1]; 2nd month): 0.706%
- Difference in TQ content ([1]; 2nd month vs initial): 0.027%
- Percentage difference in TQ ([1]; 2nd month vs initial): −3.68%
- TQ content by GC (%) ([1]; 3rd month): 0.622%
- Difference in TQ content ([1]; 3rd month vs initial): 0.111%
- Percentage difference in TQ ([1]; 3rd month vs initial): −15.14%
- TQ content by GC (%) ([1]; 6th month): 0.548%
- Difference in TQ content ([1]; 6th month vs initial): 0.185%
- Percentage difference in TQ ([1]; 6th month vs initial): −25.23%
- Difference in TQ content ([1]; Initial (0 month)): 0%
- Percentage difference in TQ ([1]; Initial (0 month)): 0%
- TQ content by GC (%) ([1]; Initial (0 month)): 0.733%
- content of thymoquinone, trend [1, 5]: decrease
- TQ content by GC (%) ([2]; 3rd month): 0.643%
- Difference in TQ content ([2]; 3rd month vs initial): 0.09%
- Percentage difference in TQ ([2]; 3rd month vs initial): −12.27%
- TQ content by GC (%) ([2]; 6th month): 0.634%
- Difference in TQ content ([2]; 6th month vs initial): 0.099%
- Percentage difference in TQ ([2]; 6th month vs initial): −13.50%
- Difference in TQ content ([2]; Initial (0 Month)): 0%
- Percentage difference in TQ ([2]; Initial (0 Month)): 0%
- TQ content by GC (%) ([2]; Initial (0 Month)): 0.733%
